Measured values as given in ChEMBL document CHEMBL4145521, “Regioselective synthesis of 3,4-diaryl-5-unsubstituted isoxazoles, analogues of natural cytostatic combretastatin A4” (Eur J Med Chem, 2018).

Tests used:
Assay type in all cases: functional
SF-268 = assay: Cytotoxicity against human SF268 cells assessed as cell growth at 0.01 uM incubated for 48 hrs by sulforhodamine B assay relative to control; conditions: SF-268, 48 h, read-out: Activity
SNB-75 [1] = assay: Cytotoxicity against human SNB75 cells assessed as cell growth at 0.01 uM incubated for 48 hrs by sulforhodamine B assay relative to control; conditions: SNB-75, 48 h, read-out: Activity
CAKI-1 = assay: Cytotoxicity against human Caki1 cells assessed as cell growth at 0.01 uM incubated for 48 hrs by sulforhodamine B assay relative to control; conditions: CAKI-1, 48 h, read-out: Activity
A549 = assay: Cytotoxicity against human A549/ATCC cells assessed as cell growth at 0.1 uM incubated for 48 hrs by sulforhodamine B assay relative to control; conditions: A549, 48 h, read-out: Activity
NCI-H522 = assay: Cytotoxicity against human NCI-H522 cells assessed as cell growth at 0.1 uM incubated for 48 hrs by sulforhodamine B assay relative to control; conditions: NCI-H522, 48 h, read-out: Activity
HCT-15 = assay: Cytotoxicity against human HCT15 cells assessed as cell growth at 0.1 uM incubated for 48 hrs by sulforhodamine B assay relative to control; conditions: HCT-15, 48 h, read-out: Activity
KM12 [2] = assay: Cytotoxicity against human KM12 cells assessed as cell growth at 0.1 uM incubated for 48 hrs by sulforhodamine B assay relative to control; conditions: KM12, 48 h, read-out: Activity
SK-OV-3 = assay: Cytotoxicity against human SKOV3 cells assessed as cell growth at 0.1 uM incubated for 48 hrs by sulforhodamine B assay relative to control; conditions: SK-OV-3, 48 h, read-out: Activity
A498 [3] = assay: Cytotoxicity against human A498 cells assessed as cell growth at 0.1 uM incubated for 48 hrs by sulforhodamine B assay relative to control; conditions: A498, 48 h, read-out: Activity
PC-3 = assay: Cytotoxicity against human PC3 cells assessed as cell growth at 0.1 uM incubated for 48 hrs by sulforhodamine B assay relative to control; conditions: PC-3, 48 h, read-out: Activity
MCF7 = assay: Cytotoxicity against human MCF7 cells assessed as cell growth at 0.1 uM incubated for 48 hrs by sulforhodamine B assay relative to control; conditions: MCF7, 48 h, read-out: Activity
MDA-MB-468 = assay: Cytotoxicity against human MDA-MB-468 cells assessed as cell growth at 0.1 uM incubated for 48 hrs by sulforhodamine B assay relative to control; conditions: MDA-MB-468, 48 h, read-out: Activity
HCT-116 = assay: Cytotoxicity against human HCT116 cells assessed as cell growth at 1 uM incubated for 48 hrs by sulforhodamine B assay relative to control; conditions: HCT-116, 48 h, read-out: Activity
KM12 [4] = assay: Cytotoxicity against human KM12 cells assessed as cell growth at 1 uM incubated for 48 hrs by sulforhodamine B assay relative to control; conditions: KM12, 48 h, read-out: Activity
SNB-75 [5] = assay: Cytotoxicity against human SNB75 cells assessed as cell growth at 1 uM incubated for 48 hrs by sulforhodamine B assay relative to control; conditions: SNB-75, 48 h, read-out: Activity
NCI/ADR-RES = assay: Cytotoxicity against human NCI/ADR-RES cells assessed as cell growth at 1 uM incubated for 48 hrs by sulforhodamine B assay relative to control; conditions: read-out: Activity
NCI-H322M = assay: Cytotoxicity against human NCI-H322M cells assessed as cell growth at 10 uM incubated for 48 hrs by sulforhodamine B assay relative to control; conditions: read-out: Activity
SF-539 = assay: Cytotoxicity against human SF539 cells assessed as cell growth at 10 uM incubated for 48 hrs by sulforhodamine B assay relative to control; conditions: SF-539, 48 h, read-out: Activity
M14 = assay: Cytotoxicity against human M14 cells assessed as cell growth at 10 uM incubated for 48 hrs by sulforhodamine B assay relative to control; conditions: M14, 48 h, read-out: Activity
A498 [6] = assay: Cytotoxicity against human A498 cells assessed as cell growth at 10 uM incubated for 48 hrs by sulforhodamine B assay relative to control; conditions: A498, 48 h, read-out: Activity
BT-549 = assay: Cytotoxicity against human BT549 cells assessed as cell growth at 10 uM incubated for 48 hrs by sulforhodamine B assay relative to control; conditions: BT-549, 48 h, read-out: Activity
SK-MEL-2 = assay: Cytotoxicity against human SK-MEL-2 cells assessed as cell growth at 100 uM incubated for 48 hrs by sulforhodamine B assay relative to control; conditions: SK-MEL-2, 48 h, read-out: Activity
OVCAR-4 = assay: Cytotoxicity against human OVCAR4 cells assessed as cell growth at 100 uM incubated for 48 hrs by sulforhodamine B assay relative to control; conditions: OVCAR-4, 48 h, read-out: Activity
OVCAR-8 = assay: Cytotoxicity against human OVCAR8 cells assessed as cell growth at 100 uM incubated for 48 hrs by sulforhodamine B assay relative to control; conditions: OVCAR-8, 48 h, read-out: Activity
ACHN = assay: Cytotoxicity against human ACHN cells assessed as cell growth at 100 uM incubated for 48 hrs by sulforhodamine B assay relative to control; conditions: read-out: Activity
MOLT-4 = assay: Cytotoxicity against human MOLT4 cells incubated for 48 hrs by sulforhodamine B assay; conditions: MOLT-4, 48 h
COLO 205 = assay: Cytotoxicity against human COLO205 cells incubated for 48 hrs by sulforhodamine B assay; conditions: COLO 205, 48 h
SF-295 = assay: Cytotoxicity against human SF295 cells incubated for 48 hrs by sulforhodamine B assay; conditions: SF-295, 48 h
SN12C = assay: Cytotoxicity against human SN12C cells incubated for 48 hrs by sulforhodamine B assay
UO-31 = assay: Cytotoxicity against human UO31 cells incubated for 48 hrs by sulforhodamine B assay; conditions: UO-31, 48 h
[7] = read-out: LC50 (the source's name)
[8] = read-out: pLC50 (the source's name) (converted)

COc1ccc(-c2nocc2-c2cc(OC)c(OC)c(OC)c2)cc1
growth at 0.01 µM (SF-268): 95% | growth at 0.01 µM (SNB-75 [1]): 74% | growth at 0.01 µM (CAKI-1): 90% | growth at 0.1 µM (A549): 47% | growth at 0.1 µM (NCI-H522): -12% | growth at 0.1 µM (HCT-15): 29% | growth at 0.1 µM (KM12 [2]): 26% | growth at 0.1 µM (SK-OV-3): 60% | growth at 0.1 µM (A498 [3]): 29% | growth at 0.1 µM (PC-3): 40% | growth at 0.1 µM (MCF7): 27% | growth at 0.1 µM (MDA-MB-468): 55% | growth at 1 µM (HCT-116): 14% | growth at 1 µM (KM12 [4]): 20% | growth at 1 µM (SNB-75 [5]): 4% | growth at 1 µM (NCI/ADR-RES): 9% | growth at 10 µM (NCI-H322M): 35% | growth at 10 µM (SF-539): 2% | growth at 10 µM (M14): 13% | growth at 10 µM (A498 [6]): -13% | growth at 10 µM (BT-549): 9% | growth at 100 µM (SK-MEL-2): -8% | growth at 100 µM (OVCAR-4): 15% | growth at 100 µM (OVCAR-8): 4% | growth at 100 µM (ACHN): -13% | GI50 (MOLT-4; read-out: GI50): 0.708 µM | CC50 (MOLT-4; [7]): > 100 µM | TGI (MOLT-4; read-out: TGI): > 100 µM | GI50 (MOLT-4; read-out: pGI50 (converted)): 0.708 µM | CC50 (MOLT-4; [8]): > 100 µM | TGI (MOLT-4; read-out: pTGI): > 100 µM | GI50 (COLO 205; read-out: GI50): 0.0581 µM | CC50 (COLO 205; [7]): > 100 µM | TGI (COLO 205; read-out: TGI): 1.91 µM | GI50 (COLO 205; read-out: pGI50 (converted)): 0.0575 µM | CC50 (COLO 205; [8]): > 100 µM | TGI (COLO 205; read-out: pTGI (converted)): 1.91 µM | GI50 (SF-295; read-out: GI50): 0.0505 µM | CC50 (SF-295; [7]): > 100 µM | TGI (SF-295; read-out: TGI): 13.1 µM | GI50 (SF-295; read-out: pGI50 (converted)): 0.0501 µM | CC50 (SF-295; [8]): > 100 µM | TGI (SF-295; read-out: pTGI (converted)): 13.2 µM | GI50 (SN12C; read-out: GI50): 0.825 µM | LC50 (SN12C; read-out: LC50): > 100 µM | TGI (SN12C; read-out: TGI): 92.6 µM | GI50 (SN12C; read-out: pGI50 (converted)): 0.832 µM | LC50 (SN12C; read-out: pLC50 (converted)): > 100 µM | TGI (SN12C; read-out: pTGI (converted)): 93.3 µM | GI50 (UO-31; read-out: GI50): 0.545 µM | CC50 (UO-31; [7]): > 100 µM | TGI (UO-31; read-out: TGI): 28.7 µM | GI50 (UO-31; read-out: pGI50 (converted)): 0.55 µM | CC50 (UO-31; [8]): > 100 µM | TGI (UO-31; read-out: pTGI (converted)): 28.8 µM
